Paper PMC12073402, “A Selective MAP3K1 Inhibitor Facilitates Discovery of NPM1 as a Member of the Network” (Molecules, 2025)

Columns and labels:
Assay in all cases: KiNativ kinome profiling in PANC-1 lysate
Format in all cases: binding
[1] = biological target: T1, RSK3 domain1 (Homo sapiens, UniProt Q15349); conditions: Lys2
T1 construct: endogenous in cells; host or cells: PANC-1 cell lysate
In short: (§1)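 PANC-1 lysates were incubated with 5 μM inhibitor or DMSO, then labeled with a desthiobiotin-ATP acyl-phosphate probe that biotinylates conserved kinase lysines. Tryptic peptides were streptavidin-enriched and quantified by LC-MS/MS, reported as % change in MS signal from duplicate treated and duplicate control samples.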

[2] = biological target: T2, RSK1 domain2 (Homo sapiens, UniProt Q15418); conditions: Lys2
T2 construct: endogenous in cells; host or cells: PANC-1 cell lysate
In short: as §1

[3] = biological target: T3, NEK9 (Homo sapiens, UniProt Q8TD19)
T3 construct: endogenous in cells; host or cells: PANC-1 cell lysate
T3 sequence (Q8TD19 1-979): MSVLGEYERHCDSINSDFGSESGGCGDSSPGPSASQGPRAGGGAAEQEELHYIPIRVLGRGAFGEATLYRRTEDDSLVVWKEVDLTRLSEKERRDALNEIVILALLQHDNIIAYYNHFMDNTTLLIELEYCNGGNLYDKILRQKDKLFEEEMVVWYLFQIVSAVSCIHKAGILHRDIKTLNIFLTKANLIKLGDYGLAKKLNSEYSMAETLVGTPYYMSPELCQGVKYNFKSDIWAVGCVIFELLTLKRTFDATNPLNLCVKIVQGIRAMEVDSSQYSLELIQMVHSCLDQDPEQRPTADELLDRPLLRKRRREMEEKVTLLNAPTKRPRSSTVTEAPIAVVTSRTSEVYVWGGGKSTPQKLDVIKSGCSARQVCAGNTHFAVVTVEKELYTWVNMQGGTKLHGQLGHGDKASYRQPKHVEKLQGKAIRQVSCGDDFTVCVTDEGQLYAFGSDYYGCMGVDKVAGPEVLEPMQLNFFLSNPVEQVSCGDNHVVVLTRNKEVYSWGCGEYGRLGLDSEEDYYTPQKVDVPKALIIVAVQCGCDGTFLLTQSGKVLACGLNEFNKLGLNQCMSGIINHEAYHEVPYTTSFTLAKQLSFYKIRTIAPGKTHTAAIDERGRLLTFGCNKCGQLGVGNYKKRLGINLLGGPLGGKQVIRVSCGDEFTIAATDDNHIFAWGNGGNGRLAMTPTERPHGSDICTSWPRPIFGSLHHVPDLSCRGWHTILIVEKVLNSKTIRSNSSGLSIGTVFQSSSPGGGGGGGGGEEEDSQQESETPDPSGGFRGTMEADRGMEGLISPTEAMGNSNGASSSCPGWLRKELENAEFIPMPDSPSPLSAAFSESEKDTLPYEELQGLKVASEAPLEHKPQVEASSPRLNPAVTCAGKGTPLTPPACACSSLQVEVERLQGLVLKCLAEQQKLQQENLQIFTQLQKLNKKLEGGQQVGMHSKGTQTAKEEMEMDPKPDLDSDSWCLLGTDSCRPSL
In short: as §1

[4] = biological target: T4, PKCi (Homo sapiens, UniProt P41743)
T4 construct: endogenous in cells; host or cells: PANC-1 cell lysate
In short: as §1

[5] = system: Wnk1, Wnk2, Wnk4; conditions: 5 µM; ATP Loop; IGDLGLATLKR
In short: as §1

[6] = biological target: T5, LATS1 (Homo sapiens, UniProt O95835)
T5 construct: we opted to conduct a kinome screen (KiNativ) in PANC-1 cell lysates; endogenous in cells; host or cells: PANC-1 cell lysate
In short: as §1

[7] = biological target: T6, CDK6 (Homo sapiens, UniProt Q00534); conditions: Lys2
T6 construct: endogenous in cells; host or cells: PANC-1 cell lysate
In short: as §1

[8] = biological target: T7, CHK2 (Homo sapiens, UniProt O96017)
T7 construct: endogenous in cells; host or cells: PANC-1 cell lysate
In short: as §1

[9] = system: NEK6, NEK7; conditions: 5 µM; Lys2; DIKPANVFITATGVVK
In short: as §1

[10] = biological target: T8, p70S6Kb (Homo sapiens, UniProt Q9UBS0); conditions: Lys2
T8 construct: endogenous in cells; host or cells: PANC-1 cell lysate
In short: as §1

[11] = biological target: T9, GSK3A (Homo sapiens, UniProt P49840); conditions: Lys2
T9 construct: we opted to conduct a kinome screen (KiNativ) in PANC-1 cell lysates; endogenous in cells; host or cells: PANC-1 cell lysate
In short: as §1

[12] = system: ZC1/HGK, ZC2/TNIK, ZC3/MINK; conditions: 5 µM; Lys2; DIKGQNVLLTENAEVK
In short: as §1

[13] = biological target: T10, Erk2 (Homo sapiens, UniProt P28482); conditions: Lys2
T10 construct: endogenous in cells; host or cells: PANC-1 lysate
In short: as §1

T5 sequence (O95835 whole entry): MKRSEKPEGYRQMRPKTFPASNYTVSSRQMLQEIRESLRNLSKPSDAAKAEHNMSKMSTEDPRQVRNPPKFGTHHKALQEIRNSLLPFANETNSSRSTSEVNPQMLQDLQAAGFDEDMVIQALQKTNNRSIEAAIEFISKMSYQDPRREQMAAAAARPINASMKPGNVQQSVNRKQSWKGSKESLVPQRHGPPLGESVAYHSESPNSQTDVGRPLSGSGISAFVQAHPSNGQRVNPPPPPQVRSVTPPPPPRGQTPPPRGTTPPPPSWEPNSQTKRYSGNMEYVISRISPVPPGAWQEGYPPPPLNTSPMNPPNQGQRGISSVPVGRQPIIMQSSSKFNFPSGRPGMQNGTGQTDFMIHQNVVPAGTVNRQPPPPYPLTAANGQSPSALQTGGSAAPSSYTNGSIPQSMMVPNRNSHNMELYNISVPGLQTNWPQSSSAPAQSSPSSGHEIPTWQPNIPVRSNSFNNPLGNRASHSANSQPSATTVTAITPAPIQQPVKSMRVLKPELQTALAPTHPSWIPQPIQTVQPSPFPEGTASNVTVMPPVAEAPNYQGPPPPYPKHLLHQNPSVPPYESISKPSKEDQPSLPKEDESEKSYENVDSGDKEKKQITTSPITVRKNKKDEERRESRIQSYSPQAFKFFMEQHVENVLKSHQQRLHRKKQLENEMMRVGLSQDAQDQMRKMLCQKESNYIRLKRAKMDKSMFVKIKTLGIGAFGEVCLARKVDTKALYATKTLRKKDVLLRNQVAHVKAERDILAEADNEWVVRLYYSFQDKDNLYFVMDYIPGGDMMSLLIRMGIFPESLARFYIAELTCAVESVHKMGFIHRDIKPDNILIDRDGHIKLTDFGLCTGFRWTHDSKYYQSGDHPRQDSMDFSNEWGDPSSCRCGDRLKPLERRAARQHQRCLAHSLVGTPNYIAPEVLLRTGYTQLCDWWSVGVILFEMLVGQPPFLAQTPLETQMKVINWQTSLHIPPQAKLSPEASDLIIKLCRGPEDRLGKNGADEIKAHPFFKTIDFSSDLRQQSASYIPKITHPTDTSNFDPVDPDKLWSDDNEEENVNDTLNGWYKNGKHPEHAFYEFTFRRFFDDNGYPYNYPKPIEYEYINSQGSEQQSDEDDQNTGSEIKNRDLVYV
T7 sequence (O96017 whole entry): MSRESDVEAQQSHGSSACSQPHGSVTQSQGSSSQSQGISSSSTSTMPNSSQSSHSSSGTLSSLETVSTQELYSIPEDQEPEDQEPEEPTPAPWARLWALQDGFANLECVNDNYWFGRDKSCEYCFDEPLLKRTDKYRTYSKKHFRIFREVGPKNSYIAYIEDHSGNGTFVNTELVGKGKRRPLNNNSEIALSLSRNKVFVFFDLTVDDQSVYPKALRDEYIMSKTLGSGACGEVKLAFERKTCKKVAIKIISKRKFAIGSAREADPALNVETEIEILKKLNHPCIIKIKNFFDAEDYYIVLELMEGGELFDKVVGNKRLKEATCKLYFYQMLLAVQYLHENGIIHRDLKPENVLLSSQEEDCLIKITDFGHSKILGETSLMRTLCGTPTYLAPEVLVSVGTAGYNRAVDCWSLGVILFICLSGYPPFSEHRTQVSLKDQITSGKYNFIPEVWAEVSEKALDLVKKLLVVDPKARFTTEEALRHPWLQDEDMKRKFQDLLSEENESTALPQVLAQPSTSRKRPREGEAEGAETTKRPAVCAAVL
T4 sequence (P41743 whole entry): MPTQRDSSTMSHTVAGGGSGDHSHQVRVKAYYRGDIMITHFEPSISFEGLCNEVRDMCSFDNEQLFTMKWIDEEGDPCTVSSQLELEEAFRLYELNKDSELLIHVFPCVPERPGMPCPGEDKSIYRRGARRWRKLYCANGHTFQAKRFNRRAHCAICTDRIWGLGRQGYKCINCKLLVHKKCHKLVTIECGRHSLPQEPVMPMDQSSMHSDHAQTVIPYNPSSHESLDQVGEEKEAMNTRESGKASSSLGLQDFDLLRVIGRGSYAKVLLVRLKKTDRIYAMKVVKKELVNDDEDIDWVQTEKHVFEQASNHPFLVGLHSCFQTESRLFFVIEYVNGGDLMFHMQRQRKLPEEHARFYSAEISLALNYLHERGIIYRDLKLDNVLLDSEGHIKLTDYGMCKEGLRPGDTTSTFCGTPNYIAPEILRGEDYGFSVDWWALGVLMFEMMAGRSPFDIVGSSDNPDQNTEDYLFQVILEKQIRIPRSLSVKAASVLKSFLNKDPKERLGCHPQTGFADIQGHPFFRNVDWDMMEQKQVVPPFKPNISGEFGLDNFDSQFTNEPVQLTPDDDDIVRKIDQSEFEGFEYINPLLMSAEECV
T6 sequence (Q00534 whole entry): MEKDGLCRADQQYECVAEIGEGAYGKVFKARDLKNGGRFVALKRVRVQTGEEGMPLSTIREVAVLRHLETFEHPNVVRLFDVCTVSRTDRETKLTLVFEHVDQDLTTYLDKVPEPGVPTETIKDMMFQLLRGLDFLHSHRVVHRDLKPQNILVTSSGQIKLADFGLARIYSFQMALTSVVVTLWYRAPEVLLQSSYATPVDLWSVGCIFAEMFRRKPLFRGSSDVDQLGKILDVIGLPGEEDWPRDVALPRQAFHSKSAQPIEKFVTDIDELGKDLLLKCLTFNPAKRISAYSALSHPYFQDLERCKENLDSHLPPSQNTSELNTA
T8 sequence (Q9UBS0 whole entry): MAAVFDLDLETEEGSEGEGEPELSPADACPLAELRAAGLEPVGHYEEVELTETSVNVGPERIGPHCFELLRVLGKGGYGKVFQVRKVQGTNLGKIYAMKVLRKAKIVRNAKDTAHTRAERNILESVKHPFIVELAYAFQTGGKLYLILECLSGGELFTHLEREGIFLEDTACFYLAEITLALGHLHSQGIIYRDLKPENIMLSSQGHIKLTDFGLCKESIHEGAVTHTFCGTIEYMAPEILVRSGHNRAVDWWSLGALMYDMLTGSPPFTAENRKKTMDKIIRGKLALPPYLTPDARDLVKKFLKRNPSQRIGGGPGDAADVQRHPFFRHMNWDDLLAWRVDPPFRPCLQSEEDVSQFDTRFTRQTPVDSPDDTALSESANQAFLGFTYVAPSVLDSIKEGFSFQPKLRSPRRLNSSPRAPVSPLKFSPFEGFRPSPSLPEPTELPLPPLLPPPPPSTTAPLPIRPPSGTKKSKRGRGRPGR
T10 sequence (P28482 whole entry): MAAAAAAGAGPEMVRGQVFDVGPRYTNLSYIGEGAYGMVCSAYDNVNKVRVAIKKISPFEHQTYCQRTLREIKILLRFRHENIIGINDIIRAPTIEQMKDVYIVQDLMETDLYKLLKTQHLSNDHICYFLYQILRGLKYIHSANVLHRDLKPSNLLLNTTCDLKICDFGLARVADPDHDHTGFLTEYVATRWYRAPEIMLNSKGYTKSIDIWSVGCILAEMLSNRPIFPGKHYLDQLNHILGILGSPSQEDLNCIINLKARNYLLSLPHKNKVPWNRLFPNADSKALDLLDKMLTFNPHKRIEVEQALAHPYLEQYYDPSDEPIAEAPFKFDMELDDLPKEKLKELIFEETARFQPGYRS
T9 sequence (P49840 whole entry): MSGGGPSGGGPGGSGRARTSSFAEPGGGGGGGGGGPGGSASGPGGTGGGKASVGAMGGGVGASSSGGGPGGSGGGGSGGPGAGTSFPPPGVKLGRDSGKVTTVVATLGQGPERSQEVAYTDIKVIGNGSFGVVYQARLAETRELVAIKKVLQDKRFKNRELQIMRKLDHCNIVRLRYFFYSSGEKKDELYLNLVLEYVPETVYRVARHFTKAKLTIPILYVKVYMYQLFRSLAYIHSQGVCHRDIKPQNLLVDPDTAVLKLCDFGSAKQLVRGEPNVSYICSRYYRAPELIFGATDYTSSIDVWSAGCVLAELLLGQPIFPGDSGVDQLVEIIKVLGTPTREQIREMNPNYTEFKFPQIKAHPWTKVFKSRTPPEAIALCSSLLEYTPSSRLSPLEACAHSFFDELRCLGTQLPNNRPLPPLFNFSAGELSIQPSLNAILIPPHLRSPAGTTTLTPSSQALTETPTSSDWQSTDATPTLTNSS
T2 sequence (Q15418 whole entry, the tested form may be a part): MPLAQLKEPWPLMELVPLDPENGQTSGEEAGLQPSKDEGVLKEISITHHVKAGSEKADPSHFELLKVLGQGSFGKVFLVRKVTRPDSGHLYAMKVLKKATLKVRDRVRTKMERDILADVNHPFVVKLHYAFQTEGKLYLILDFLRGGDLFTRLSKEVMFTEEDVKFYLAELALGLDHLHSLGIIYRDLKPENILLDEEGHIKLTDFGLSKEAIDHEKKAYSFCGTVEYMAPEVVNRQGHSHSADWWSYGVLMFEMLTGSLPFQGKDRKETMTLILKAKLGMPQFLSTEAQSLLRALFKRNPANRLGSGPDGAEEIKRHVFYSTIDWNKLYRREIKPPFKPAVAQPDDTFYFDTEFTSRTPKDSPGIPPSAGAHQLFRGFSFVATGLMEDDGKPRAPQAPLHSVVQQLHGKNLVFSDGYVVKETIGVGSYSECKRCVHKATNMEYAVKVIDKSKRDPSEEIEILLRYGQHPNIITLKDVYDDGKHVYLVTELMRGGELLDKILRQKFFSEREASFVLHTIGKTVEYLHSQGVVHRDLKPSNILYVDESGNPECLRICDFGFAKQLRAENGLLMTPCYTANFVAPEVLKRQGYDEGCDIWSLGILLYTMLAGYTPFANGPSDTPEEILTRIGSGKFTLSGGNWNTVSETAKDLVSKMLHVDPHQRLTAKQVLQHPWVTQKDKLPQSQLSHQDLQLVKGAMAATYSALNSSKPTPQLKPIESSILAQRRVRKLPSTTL

SMILES: Cn1cc(-c2cnc3ccc(NC(=O)Nc4ccc(F)c(C(F)(F)F)c4)cc3n2)cn1 [51-106, 1-(4-Fluoro-3-(trifluoromethyl)phenyl)-3-(3-(1-methyl-1H-pyrazol-4-yl)quinoxalin-6-yl)urea]
- inhibition at 5 µM [1]: ≤ 0%
- inhibition at 5 µM [2]: 6.9%
- inhibition at 5 µM ([3]; ATP Loop, LGDYGLAKK): ≤ 0%
- inhibition at 5 µM ([3]; Lys1, RTEDDSLVVWKEVDLTR): 0.6%
- inhibition at 5 µM ([3]; Lys2, DIKTLNIFLTK): 13.8%
- % Inhibition ([4]; 5 µM, Lys2, DLKLDNVLLDSEGHIK): NB (NB = No Binding (≤ 0))
- inhibition at 5 µM ([4]; Lys1, […]): ≤ 0%
- % Inhibition [5]: 4.6%
- % Inhibition ([6]; 5 µM, Lys2, DIKPDNILIDR): NB (NB = No Binding (≤ 0))
- inhibition at 5 µM ([6]; Lys1, […]): ≤ 0%
- inhibition at 5 µM [7]: ≤ 0%
- inhibition at 5 µM ([8]; Lys1, VAIKIISK): 14.8%
- inhibition at 5 µM ([8]; Lys2, DLKPENVLLSSQEEDCLIK): ≤ 0%
- % Inhibition [9]: 24.8%
- inhibition at 5 µM [10]: 22.5%
- inhibition at 5 µM [11]: ≤ 0%
- % Inhibition [12]: NB (NB = No Binding (≤ 0))
- inhibition at 5 µM [13]: ≤ 0%
